According to ChEMBL document CHEMBL2021921 (Bioorg Med Chem Lett, 2012):
Calls of active or inactive are those of the source. The calls are words filed in the database; no cut-off is given here. Where a SMILES comes first, the peptide text is derived from it. [ ]: non-standard residue; d: D form. The star is where a group is joined. Adenosine(5'-uronoyl) = Nc1ncnc2c1ncn2[C@@H]1O[C@H](C(=O)*)[C@@H](O)[C@H]1O; X1 = Nc1nccc(-c2ccc(C(=O)*)s2)n1; Ahx = NCCCCCC(=O)O

Experiments:
[1] = Displacement of fluorescent-ARC-1063 from recombinant bovine PKAc by luminescence intensity assay; design: species or system Bos taurus
[2] = biological target: T1, Rho-associated protein kinase 2 (Homo sapiens, UniProt O75116); assay: Displacement of fluorescent-ARC-1063 from His6-tagged recombinant human ROCK2 by luminescence intensity assay
Target sequence in this assay (O75116 whole entry): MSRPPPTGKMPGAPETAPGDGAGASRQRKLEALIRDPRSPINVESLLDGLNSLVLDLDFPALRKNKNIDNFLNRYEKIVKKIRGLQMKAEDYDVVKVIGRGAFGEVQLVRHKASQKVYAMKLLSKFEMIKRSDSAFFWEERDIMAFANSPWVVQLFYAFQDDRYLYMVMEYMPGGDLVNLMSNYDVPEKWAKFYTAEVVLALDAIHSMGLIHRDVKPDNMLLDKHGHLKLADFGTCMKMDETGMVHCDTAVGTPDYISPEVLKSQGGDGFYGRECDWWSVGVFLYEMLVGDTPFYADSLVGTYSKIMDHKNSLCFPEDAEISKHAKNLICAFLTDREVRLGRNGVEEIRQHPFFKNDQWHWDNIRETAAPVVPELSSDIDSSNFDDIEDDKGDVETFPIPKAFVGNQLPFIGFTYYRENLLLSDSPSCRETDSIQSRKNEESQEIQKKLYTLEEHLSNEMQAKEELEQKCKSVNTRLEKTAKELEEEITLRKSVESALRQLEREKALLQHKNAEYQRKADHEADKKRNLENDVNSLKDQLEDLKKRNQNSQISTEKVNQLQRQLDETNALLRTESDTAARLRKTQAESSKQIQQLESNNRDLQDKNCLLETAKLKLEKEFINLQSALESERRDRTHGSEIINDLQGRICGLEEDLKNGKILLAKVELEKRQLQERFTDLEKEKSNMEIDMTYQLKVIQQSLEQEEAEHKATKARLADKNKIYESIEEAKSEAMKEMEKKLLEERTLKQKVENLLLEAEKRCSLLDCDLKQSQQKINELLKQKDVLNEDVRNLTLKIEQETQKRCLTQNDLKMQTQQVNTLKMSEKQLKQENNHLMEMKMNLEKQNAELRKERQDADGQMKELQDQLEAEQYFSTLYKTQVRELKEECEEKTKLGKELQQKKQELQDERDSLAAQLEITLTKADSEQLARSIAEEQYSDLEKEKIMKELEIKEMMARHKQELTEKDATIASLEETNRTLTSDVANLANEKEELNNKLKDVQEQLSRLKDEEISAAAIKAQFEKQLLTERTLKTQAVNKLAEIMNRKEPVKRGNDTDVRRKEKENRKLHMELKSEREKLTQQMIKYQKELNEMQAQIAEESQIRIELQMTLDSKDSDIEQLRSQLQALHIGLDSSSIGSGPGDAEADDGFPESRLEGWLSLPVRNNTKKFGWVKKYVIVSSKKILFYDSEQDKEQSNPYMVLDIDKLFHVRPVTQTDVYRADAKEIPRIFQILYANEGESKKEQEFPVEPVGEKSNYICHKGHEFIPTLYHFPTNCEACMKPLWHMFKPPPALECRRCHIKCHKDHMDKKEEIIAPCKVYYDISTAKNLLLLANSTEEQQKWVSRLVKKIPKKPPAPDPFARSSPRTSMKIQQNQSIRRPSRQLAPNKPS

[3] = Selectivity ratio of Kd for His6-tagged recombinant human ROCK2 to Kd for recombinant bovine PKAc
[4] = Displacement of fluorescent-ARC-583 from recombinant bovine PKAc by fluorescence anisotropy assay; design: species or system Bos taurus
[5] = biological target: T1, Rho-associated protein kinase 2; assay: Displacement of fluorescent-ARC-1042 from His6-tagged recombinant human ROCK2 by fluorescence anisotropy assay
Target sequence in this assay (O75116 whole entry): as above

[6] = biological target: RAC-gamma serine/threonine-protein kinase (Homo sapiens, UniProt Q9Y243, S472D); assay: Displacement of fluorescent-ARC-583/ARC-1042/ARC-1059 from His6-tagged recombinant human AKT3 S472D mutant by fluorescence anisotropy assay
[7] = biological target: Ribosomal protein S6 kinase alpha-5 (Homo sapiens, UniProt O75582); assay: Displacement of fluorescent-ARC-583/ARC-1042/ARC-1059 from His6-tagged recombinant human MSK1 by fluorescence anisotropy assay
[8] = biological target: Ribosomal protein S6 kinase beta-1 (Homo sapiens, UniProt P23443); assay: Displacement of fluorescent-ARC-583/ARC-1042/ARC-1059 from His6-tagged recombinant human p70S6K by fluorescence anisotropy assay
[9] = biological target: T2, cGMP-dependent protein kinase 1 (Homo sapiens, UniProt Q13976); assay: Displacement of fluorescent-ARC-583/ARC-1042/ARC-1059 from His6-tagged recombinant human PKG1alpha by fluorescence anisotropy assay
T2 sequence (Q13976 whole entry): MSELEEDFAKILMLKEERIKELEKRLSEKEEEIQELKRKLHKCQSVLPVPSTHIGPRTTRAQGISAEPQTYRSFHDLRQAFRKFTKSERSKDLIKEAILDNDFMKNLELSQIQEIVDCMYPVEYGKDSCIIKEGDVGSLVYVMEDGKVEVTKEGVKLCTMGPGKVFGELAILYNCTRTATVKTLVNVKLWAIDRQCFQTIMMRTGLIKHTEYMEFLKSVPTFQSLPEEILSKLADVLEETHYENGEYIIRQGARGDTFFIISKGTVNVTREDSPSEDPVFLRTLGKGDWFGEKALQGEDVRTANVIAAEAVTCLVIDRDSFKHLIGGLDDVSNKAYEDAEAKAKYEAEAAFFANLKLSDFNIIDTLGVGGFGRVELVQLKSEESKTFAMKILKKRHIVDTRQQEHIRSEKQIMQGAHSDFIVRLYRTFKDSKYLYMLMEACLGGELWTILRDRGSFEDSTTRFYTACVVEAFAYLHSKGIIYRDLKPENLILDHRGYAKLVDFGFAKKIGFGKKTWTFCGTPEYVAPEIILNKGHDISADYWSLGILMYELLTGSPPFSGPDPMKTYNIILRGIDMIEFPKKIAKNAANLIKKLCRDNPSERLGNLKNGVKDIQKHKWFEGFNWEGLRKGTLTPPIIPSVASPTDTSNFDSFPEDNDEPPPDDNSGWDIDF

[10] = biological target: T1, Rho-associated protein kinase 2; assay: Displacement of fluorescent-ARC-583/ARC-1042/ARC-1059 from His6-tagged recombinant human ROCK2 by fluorescence anisotropy assay
Target sequence in this assay (O75116 whole entry): as the sequence (O75116 whole entry) above

Bos taurus = organism: Bos taurus; assay: Displacement of fluorescent-ARC-1063 from recombinant bovine PKAc by fluorescence anisotropy assay
[11] = biological target: T1, Rho-associated protein kinase 2; assay: Displacement of fluorescent-ARC-1063 from His6-tagged recombinant human ROCK2 by fluorescence anisotropy assay
Target sequence in this assay (O75116 whole entry, looked up): as the sequence (O75116 whole entry) above

[12] = Displacement of fluorescent-ARC-583/ARC-1042/ARC-1059 from recombinant bovine PKAc by fluorescence anisotropy assay; design: species or system Bos taurus
[13] = Displacement of fluorescent-ARC-583/ARC-1042/ARC-1059 from His6-tagged recombinant human PKCeta S472D mutant by fluorescence anisotropy assay

Chain of Ribosomal protein S6 kinase beta-1 (P23443 whole entry): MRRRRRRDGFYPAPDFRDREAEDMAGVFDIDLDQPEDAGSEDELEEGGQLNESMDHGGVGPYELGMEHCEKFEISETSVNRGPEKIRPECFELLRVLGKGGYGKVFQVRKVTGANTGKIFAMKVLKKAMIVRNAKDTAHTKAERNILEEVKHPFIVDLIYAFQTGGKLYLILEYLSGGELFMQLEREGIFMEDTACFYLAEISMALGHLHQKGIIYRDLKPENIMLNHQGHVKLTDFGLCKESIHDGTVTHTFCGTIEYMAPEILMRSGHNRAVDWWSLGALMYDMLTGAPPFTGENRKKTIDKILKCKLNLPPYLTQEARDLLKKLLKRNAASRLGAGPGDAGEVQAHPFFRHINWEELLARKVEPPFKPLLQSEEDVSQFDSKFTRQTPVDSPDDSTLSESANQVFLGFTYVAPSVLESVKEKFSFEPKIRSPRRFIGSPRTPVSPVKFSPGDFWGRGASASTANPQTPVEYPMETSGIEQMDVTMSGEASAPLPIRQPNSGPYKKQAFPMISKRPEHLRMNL
Chain of Ribosomal protein S6 kinase alpha-5 (O75582 whole entry): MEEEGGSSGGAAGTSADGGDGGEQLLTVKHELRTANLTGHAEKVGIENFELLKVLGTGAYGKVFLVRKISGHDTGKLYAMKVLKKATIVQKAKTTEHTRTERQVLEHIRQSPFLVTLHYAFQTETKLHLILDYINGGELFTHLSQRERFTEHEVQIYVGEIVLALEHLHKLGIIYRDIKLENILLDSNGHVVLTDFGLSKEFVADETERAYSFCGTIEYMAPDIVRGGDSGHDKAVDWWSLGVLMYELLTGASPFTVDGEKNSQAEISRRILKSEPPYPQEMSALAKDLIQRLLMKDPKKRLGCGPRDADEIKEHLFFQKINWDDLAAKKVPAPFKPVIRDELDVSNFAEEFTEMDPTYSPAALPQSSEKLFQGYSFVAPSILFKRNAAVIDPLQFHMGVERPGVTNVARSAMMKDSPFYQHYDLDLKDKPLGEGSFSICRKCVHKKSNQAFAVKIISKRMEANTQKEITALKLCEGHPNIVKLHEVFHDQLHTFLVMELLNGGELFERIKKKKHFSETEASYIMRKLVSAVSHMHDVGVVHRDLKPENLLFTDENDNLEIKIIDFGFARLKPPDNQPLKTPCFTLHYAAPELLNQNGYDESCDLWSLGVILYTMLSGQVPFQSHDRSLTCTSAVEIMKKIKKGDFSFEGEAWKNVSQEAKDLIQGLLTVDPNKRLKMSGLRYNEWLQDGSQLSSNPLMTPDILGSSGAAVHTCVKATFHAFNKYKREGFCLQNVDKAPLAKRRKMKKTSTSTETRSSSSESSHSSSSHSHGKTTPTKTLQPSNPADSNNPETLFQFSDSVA
Chain of RAC-gamma serine/threonine-protein kinase (Q9Y243 2-479 S472D limits assumed): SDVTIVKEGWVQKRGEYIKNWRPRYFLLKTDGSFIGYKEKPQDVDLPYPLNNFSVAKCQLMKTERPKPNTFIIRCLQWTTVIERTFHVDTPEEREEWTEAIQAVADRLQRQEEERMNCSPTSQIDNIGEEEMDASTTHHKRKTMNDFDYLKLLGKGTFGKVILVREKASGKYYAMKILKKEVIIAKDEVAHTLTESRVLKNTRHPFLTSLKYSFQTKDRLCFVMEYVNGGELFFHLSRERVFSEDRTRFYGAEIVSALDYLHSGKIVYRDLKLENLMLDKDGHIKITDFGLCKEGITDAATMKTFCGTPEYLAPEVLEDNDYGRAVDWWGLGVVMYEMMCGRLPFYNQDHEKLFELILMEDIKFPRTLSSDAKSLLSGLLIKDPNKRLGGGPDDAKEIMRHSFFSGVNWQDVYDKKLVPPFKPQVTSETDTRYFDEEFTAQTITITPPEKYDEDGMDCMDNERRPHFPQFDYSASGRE

Structure (SMILES): O=S(=O)(c1cccc2cnccc12)N1CCCNCC1 [FASUDIL]
- Kd [1]: 420 nM
- pIC50 [1]: 4.26

Structure (SMILES): N=C(N)NCCC[C@@H](NC(=O)[C@@H](CCCNC(=N)N)NC(=O)[C@@H](CCCNC(=N)N)NC(=O)[C@@H](CCCNC(=N)N)NC(=O)[C@@H](CCCNC(=N)N)NC(=O)[C@@H](CCCNC(=N)N)NC(=O)CCCCCNC(=O)[C@@H](CCCCN)NC(=O)CCCCCNC(=O)[C@H]1O[C@@H](n2cnc3c(N)ncnc32)[C@H](O)[C@@H]1O)C(N)=O ({Adenosine(5'-uronoyl)-Ahx}-[dK][Ahx][dR][dR][dR][dR][dR][dR]-NH2)
- Kd [1]: 0.26 nM
- pIC50 [1]: 6.12
- IC50 [2]: 10.5 nM
- Kd [2]: 0.021 nM
- Selectivity Index [3]: 12

Structure (SMILES): N=C(N)NCCC[C@@H](NC(=O)[C@@H](CCCNC(=N)N)NC(=O)[C@@H](CCCNC(=N)N)NC(=O)[C@@H](CCCNC(=N)N)NC(=O)[C@@H](CCCNC(=N)N)NC(=O)[C@@H](CCCNC(=N)N)NC(=O)CCCCCNC(=O)[C@@H](CCCCN)NC(=O)CNCC(=O)NCCNS(=O)(=O)c1cccc2cnccc12)C(N)=O
- Kd [4]: 130 nM
- pIC50 [4]: 6.07
- IC50 [5]: 34.7 nM
- Kd [5]: 1.5 nM

Structure (SMILES): O=S(=O)(NCCNC/C=C/c1ccc(Br)cc1)c1cccc2cnccc12
- Kd [1]: 17 nM
- pIC50 [1]: 4.3

Structure (SMILES): NCCCC[C@@H](NC(=O)CCCCCCCN1CCCN(S(=O)(=O)c2cccc3cnccc23)CC1)C(=O)NCCCCCC(=O)N[C@H](CCCN=C(N)N)C(=O)N[C@H](CCCN=C(N)N)C(N)=O
- IC50 [6]: 9120 nM
- Kd [6]: 7100 nM
- IC50 [7]: 4570 nM
- Kd [7]: 1600 nM
- IC50 [8]: 3310 nM
- Kd [8]: 860 nM
- IC50 [9]: 1860 nM
- Kd [9]: 630 nM
- IC50 [10]: 631 nM
- Kd [10]: 27 nM
- IC50 [2]: 6760 nM
- Kd [2]: 45 nM

Structure (SMILES): N=C(N)NCCC[C@@H](NC(=O)[C@@H](CCCNC(=N)N)NC(=O)[C@@H](CCCNC(=N)N)NC(=O)[C@@H](CCCNC(=N)N)NC(=O)[C@@H](CCCNC(=N)N)NC(=O)[C@@H](CCCNC(=N)N)NC(=O)CNCC(=O)NCCNS(=O)(=O)c1cccc2cnccc12)C(N)=O
- Kd [4]: 120 nM
- pIC50 [4]: 6.1
- IC50 [5]: 151 nM
- Kd [5]: 6.4 nM

Structure (SMILES): N=C(N)NCCC[C@@H](NC(=O)[C@@H](CCCNC(=N)N)NC(=O)[C@@H](CCCNC(=N)N)NC(=O)[C@@H](CCCNC(=N)N)NC(=O)[C@@H](CCCNC(=N)N)NC(=O)[C@@H](CCCNC(=N)N)NC(=O)CCCCCNC(=O)[C@H]1O[C@@H](n2cnc3c(N)ncnc32)[C@H](O)[C@@H]1O)C(N)=O
- Kd [1]: 0.25 nM
- pIC50 [1]: 6.12

Structure (SMILES): NCCCC[C@@H](NC(=O)CCCCCNC(=O)c1ccc(-c2ccnc(N)n2)s1)C(=O)NCCCCCC(=O)N[C@H](CCCN=C(N)N)C(=O)N[C@H](CCCN=C(N)N)C(=O)N[C@H](CCCN=C(N)N)C(=O)N[C@H](CCCN=C(N)N)C(=O)N[C@H](CCCN=C(N)N)C(=O)N[C@H](CCCN=C(N)N)C(N)=O ({X1-Ahx}-[dK][Ahx][dR][dR][dR][dR][dR][dR]-NH2)
- IC50 [2]: 2.75 nM
- Kd [2]: 0.0056 nM

Structure (SMILES): N=C(N)NCCC[C@@H](NC(=O)[C@@H](CCCNC(=N)N)NC(=O)CCCCCNC(=O)[C@H](CCCCN)NC(=O)CNCC(=O)NCCNS(=O)(=O)c1cccc2cnccc12)C(N)=O
- pIC50 [4]: > 4.5
- IC50 [5]: 16200 nM
- Kd [5]: 690 nM

Structure (SMILES): N=C(N)NCCC[C@@H](NC(=O)[C@@H](CCCNC(=N)N)NC(=O)CCCCCNC(=O)[C@@H](CCCCN)NC(=O)CCCCCNC(=O)[C@H]1O[C@@H](n2cnc3c(N)ncnc32)[C@H](O)[C@@H]1O)C(N)=O
- Kd [4]: 8.9 nM
- pIC50 [4]: 7.22
- Kd [1]: 4.5 nM
- pIC50 [1]: 4.87
- Selectivity Index [3]: 0.7

Structure (SMILES): N=C(N)NCCC[C@@H](NC(=O)[C@@H](CCCNC(=N)N)NC(=O)[C@@H](CCCNC(=N)N)NC(=O)[C@@H](CCCNC(=N)N)NC(=O)[C@@H](CCCNC(=N)N)NC(=O)[C@@H](CCCNC(=N)N)NC(=O)CCCCCNC(=O)[C@@H](CCCCN)NC(=O)CCNC(=O)CNCC(=O)NCCNS(=O)(=O)c1cccc2cnccc12)C(N)=O
- Kd [4]: 24 nM
- pIC50 [4]: 6.79
- IC50 [5]: 17.8 nM
- Kd [5]: 0.7 nM

Structure (SMILES): N=C(N)NCCC[C@@H](NC(=O)[C@@H](CCCNC(=N)N)NC(=O)[C@@H](CCCNC(=N)N)NC(=O)[C@@H](CCCNC(=N)N)NC(=O)[C@@H](CCCNC(=N)N)NC(=O)[C@@H](CCCNC(=N)N)NC(=O)CCCCCNC(=O)[C@@H](CCCCN)NC(=O)CCCCCCCN1CCCN(S(=O)(=O)c2cccc3cnccc23)CC1)C(N)=O
- inhibition (Bos taurus): Active
- inhibition [11]: Active
- Kd [1]: 3.3 nM
- pIC50 [1]: 5.01
- IC50 [2]: 10.2 nM
- Kd [2]: 0.02 nM
- Selectivity Index [3]: 165

Structure (SMILES): N=C(N)NCCC[C@@H](NC(=O)[C@@H](CCCNC(=N)N)NC(=O)CCCCCNC(=O)[C@@H](CCCCN)NC(=O)CNCC(=O)NCCNS(=O)(=O)c1cccc2cnccc12)C(N)=O
- Kd [4]: 2500 nM
- pIC50 [4]: 4.78
- pIC50 [5]: > 4.5

Structure (SMILES): N=C(N)NCCC[C@@H](NC(=O)[C@@H](CCCNC(=N)N)NC(=O)CCCCCNC(=O)[C@@H](CCCCN)NC(=O)CCCCCCCN1CCCN(S(=O)(=O)c2cccc3cnccc23)CC1)C(N)=O
- Kd [12]: 83 nM
- pIC50 [12]: 6.16
- pIC50 [13]: > 5
- Kd [1]: 25 nM
- pIC50 [1]: 4.12
- Selectivity Index [3]: 0.56

Structure (SMILES): N=C(N)NCCC[C@@H](NC(=O)[C@@H](CCCNC(=N)N)NC(=O)[C@@H](CCCNC(=N)N)NC(=O)[C@@H](CCCNC(=N)N)NC(=O)[C@@H](CCCNC(=N)N)NC(=O)[C@@H](CCCNC(=N)N)NC(=O)CCCCCNCCNS(=O)(=O)c1cccc2cnccc12)C(N)=O
- Kd [4]: 0.53 nM
- pIC50 [4]: 8.26
- IC50 [5]: 2.45 nM
- Kd [5]: < 0.5 nM
- IC50 [6]: 72.4 nM
- Kd [6]: 55 nM
- IC50 [7]: 81.3 nM
- Kd [7]: 26 nM
- IC50 [8]: 6.46 nM
- Kd [8]: < 1 nM
- Kd [12]: < 1 nM
- pIC50 [12]: 8.26
- Kd [13]: 980 nM
- pIC50 [13]: 5.76
- IC50 [9]: 41.7 nM
- Kd [9]: 13 nM
- IC50 [10]: 2.45 nM
- Kd [10]: < 0.5 nM

Structure (SMILES): NCCCC[C@@H](NC(=O)CCCCCNC(=O)[C@H]1O[C@@H](n2cnc3c(N)ncnc32)[C@H](O)[C@@H]1O)C(=O)NCCCCCC(=O)N[C@H](CCCN=C(N)N)C(=O)N[C@H](CCCN=C(N)N)C(N)=O
- IC50 [5]: 162 nM
- Kd [5]: 7 nM
- IC50 [2]: 977 nM
- Kd [2]: 6.4 nM

Structure (SMILES): N=C(N)NCCC[C@@H](NC(=O)[C@@H](CCCNC(=N)N)NC(=O)[C@@H](CCCNC(=N)N)NC(=O)[C@@H](CCCNC(=N)N)NC(=O)[C@@H](CCCNC(=N)N)NC(=O)[C@@H](CCCNC(=N)N)NC(=O)CCCCCNC(=O)[C@@H](CCCCN)NC(=O)CCCCCNC(=O)c1ccc(-c2ccnc(N)n2)s1)C(N)=O ({X1-Ahx}-[dK][Ahx][dR][dR][dR][dR][dR][dR]-NH2)
- Kd [1]: 0.056 nM
- pIC50 [1]: 6.78
- Selectivity Index [3]: 10

Structure (SMILES): N=C(N)NCCC[C@@H](NC(=O)[C@@H](CCCNC(=N)N)NC(=O)CNCC(=O)NCCNS(=O)(=O)c1cccc2cnccc12)C(N)=O
- pIC50 [5]: > 4.5
